Laboratory results published in patent US8217060B2, “Benzimidazole derivatives useful as TRP M8 receptor modulators” (Janssen Pharmaceutica, NV, priority 2009, dated 2012).
Structures can show the parent of a compound that is named as a salt.

How the values were obtained:
Male Sprague Dawley rats [1] = experiment: Inhibition of Icilin-Induced “Wet-Dog” Shakes in Rats; type: in vivo; settings: 60 min before icilin 3.0 mg/kg i.p., rat
Procedure: Male Sprague Dawley rats ([…], Charles River Labs, n=6-9/treatment) were used to evaluate the ability of test compounds to block icilin-induced “wet-dog” shakes (WDS). The test compound was administered in 10% hydroxypropyl-β-cyclodextrin (HP β CD), p.o., 60 minutes before icilin. Icilin was then administered in 10% solutol/H2O, at 3.0 mg/kg, i.p. and spontaneous “wet-dog” shakes were counted over a 10 minute period, 10 minutes following the icilin injection.

canine TRPM8 = target: T1, canine TRPM8 (Canis lupus familiaris, UniProt Q1A7N1); experiment: In Vitro Canine TRPM8 Functional Assay (icilin-induced intracellular Ca2+ fluorescence, FLIPR/FDSS); type: cell-based; settings: HEK293 cells stably expressing canine TRPM8; for inhibition at 0.2 µM: 0.2 μM test compound, icilin challenge; for IC50: icilin challenge (~80% maximal response), eight-point dose-response
T1 construct: expressed in transfected cells
Procedure: The functional activity of representative compounds of the formula (I) of the present invention were measured by measuring changes in intracellular calcium concentration using a Ca^2+-sensitive fluorescent dye. The changes in fluorescent signal were monitored by a fluorescence plate reader, either a FLIPR™ (Molecular Devices) or FDSS (Hamamatsu).
HEK293 cells stably expressing canine TRPM8 were routinely grown as monolayers in Dulbecco's minimum essential medium supplemented with 10% FBS, 2 mM L-glutamine, 100 units/mL penicillin, 100 ug/mL streptomycin and 400 μg/mL G418. Cells were maintained in 5% CO2 at 37° C. At 24 hrs prior to assay, cells were seeded in black wall, clear-base poly-D-lysine coated 384-well plates (BD Biosciences, NJ, USA) at a density of 5,000 cells per well in culture medium and grown overnight in 5% CO2 at 37° C. On assay day, growth media was removed and cells were loaded with Calcium 3 Dye (Molecular Devices) for 35 min at 37° C., under 5% CO2 and then for 25 min at room temperature and atmosphere. Subsequently, cells were tested for agonist-induced increases in intracellular Ca^2+ levels using FLIPR™ or FDSS. Cells were challenged with compounds of the formula (I) (at varying concentrations) and intracellular Ca^2+ was measured for 5 min prior to the addition of icilin to all wells to achieve a final concentration that produces approximately an 80% maximal response.
Basal FI was subtracted prior to normalizing data to percent of maximal response. Curves were generated using the average of quadruplicate wells for each data point, were analyzed using nonlinear regression of either sigmoidal dose response or sigmoidal dose response (variable slope). Finally, the EC50 and IC50 values were calculated with the best-fit dose curve determined by GraphPad Prism

Male Sprague Dawley rats [2] = experiment: Chronic Constriction Injury (CCI)-Induced Model of Neuropathic Pain - Acetone-Induced Hypersensitivity; type: in vivo; settings: 10 mg/kg p.o. in 10% HP β CD, rat
Source text: Male Sprague Dawley rats (225-450 g; n=5-8/treatment) were used to evaluate the ability of test compounds to reverse CCI-induced cold hypersensitivity. Four loose ligatures of 4-0 chromic gut were surgically placed around the left sciatic nerve under inhalation anesthesia as described by Bennett et al (BENNETT G. J. et al., “A Peripheral Mononeuropathy in Rat that Produces Disorders of Pain Sensation Like Those Seen in Man”, Pain, 1988, pp. 87-107, Vol 33(1)). Fourteen to 35 days following CCI surgery, subjects were placed in elevated observation chambers containing wire mesh floors and five applications of acetone (0.05 mL/application separated by approximately 5 minutes) were spritzed onto the plantar surface of the paw using a multidose syringe. An abrupt withdrawal or lifting of the paw was considered a positive response. The number of positive responses was recorded for each rat over the five trials. Following baseline withdrawal determinations, test compounds were administered in 10% hydroxypropyl-β-cyclodextrin (HP β CD), p.o. The number of withdrawals was re-determined at 2, 3 and 4 hours after compound administration.

T1 sequence (Q1A7N1 1-1104): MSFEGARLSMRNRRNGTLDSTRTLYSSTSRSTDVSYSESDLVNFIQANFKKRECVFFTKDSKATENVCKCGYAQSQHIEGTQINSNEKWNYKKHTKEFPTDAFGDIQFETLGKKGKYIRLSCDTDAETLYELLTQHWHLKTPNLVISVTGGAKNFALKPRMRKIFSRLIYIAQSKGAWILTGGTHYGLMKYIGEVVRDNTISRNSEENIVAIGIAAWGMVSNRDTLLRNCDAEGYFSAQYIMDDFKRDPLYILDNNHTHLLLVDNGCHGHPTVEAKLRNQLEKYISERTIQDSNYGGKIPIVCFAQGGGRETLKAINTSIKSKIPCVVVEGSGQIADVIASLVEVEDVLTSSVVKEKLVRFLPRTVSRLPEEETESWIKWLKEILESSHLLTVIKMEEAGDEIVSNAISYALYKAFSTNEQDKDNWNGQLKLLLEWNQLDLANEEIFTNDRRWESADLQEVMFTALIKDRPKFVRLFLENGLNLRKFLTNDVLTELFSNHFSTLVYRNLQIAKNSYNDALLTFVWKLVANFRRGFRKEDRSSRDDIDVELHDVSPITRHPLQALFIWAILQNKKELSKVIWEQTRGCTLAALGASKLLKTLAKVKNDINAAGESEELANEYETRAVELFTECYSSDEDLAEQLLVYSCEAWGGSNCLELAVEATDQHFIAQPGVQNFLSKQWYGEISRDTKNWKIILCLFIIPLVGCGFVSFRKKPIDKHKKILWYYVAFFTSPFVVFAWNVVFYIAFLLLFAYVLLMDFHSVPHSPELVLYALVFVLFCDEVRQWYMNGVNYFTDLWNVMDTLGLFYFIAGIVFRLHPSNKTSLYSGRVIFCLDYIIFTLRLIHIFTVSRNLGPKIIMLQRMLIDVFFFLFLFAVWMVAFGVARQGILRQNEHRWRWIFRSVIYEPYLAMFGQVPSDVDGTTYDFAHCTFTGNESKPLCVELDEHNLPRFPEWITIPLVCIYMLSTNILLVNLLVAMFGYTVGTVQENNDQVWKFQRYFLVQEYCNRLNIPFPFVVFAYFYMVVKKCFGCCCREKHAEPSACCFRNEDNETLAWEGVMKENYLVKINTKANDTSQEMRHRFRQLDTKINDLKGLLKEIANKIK

Row | inhibition at 0.2 µM (canine TRPM8) | IC50 (canine TRPM8) | SMILES | % Inhibition of icilin-induced “wet-dog” shakes (Male Sprague Dawley rats [1]; 10 mg/kg p.o.) | % Inhibition of icilin-induced “wet-dog” shakes (Male Sprague Dawley rats [1]; 30 mg/kg p.o.) | % Inhibition (acetone-evoked paw withdrawals, CCI) (Male Sprague Dawley rats [2]; 2 h after administration) | % Inhibition (acetone-evoked paw withdrawals, CCI) (Male Sprague Dawley rats [2]; 3 h after administration) | % Inhibition (acetone-evoked paw withdrawals, CCI) (Male Sprague Dawley rats [2]; 4 h after administration)
1 | 101% | 17 nM | FC(F)(F)c1ccccc1-c1ccc2[nH]c(/C=C/C3CCOCC3)nc2c1 [Compound 50, (E)-2-[2-(Tetrahydro-pyran-4-yl)-vinyl]-5-(2-trifluoromethyl-phenyl)-1H-benzimidazole hydrochloride] | 89% |  |  |  | 
2 | 83% | 9 nM | FC(F)(F)c1cccc(C(F)(F)F)c1-c1ccc2[nH]c(/C=C/C3CCCCC3)nc2c1 [Compound 58, (E)-5-(2,6-Bis-trifluoromethyl-phenyl)-2-(2-cyclohexyl-vinyl)-1H-benzimidazole] | 30% |  |  |  | 
3 | 96% | 6 nM | Fc1cccc(OC(F)(F)F)c1-c1ccc2[nH]c(/C=C/C3CCCCC3)nc2c1 [Compound 59, (E)-2-(2-Cyclohexyl-vinyl)-5-(2-fluoro-6-trifluoromethoxy-phenyl)-1H-benzimidazole] | 75% |  |  |  | 
4 | 94% | 9 nM | Cl.FC(F)(F)c1ccccc1-c1ccc2[nH]c(/C=C/C3CCCCC3)nc2c1 [Compound 71, 2-(2-Cyclohexyl-vinyl)-5-(2-trifluoromethyl-phenyl)-1H-benzoimidazole hydrochloride] |  | 90% | 91% | 91% | 77%
